Where no end group is shown, it is not given here.
How the values were obtained:
[1] = test system: MEC-1 cells; assay type: cell-based; conditions: for cell-death induction activity, in words: compared with N-Ter-Antp
Description: (§1) MEC-1, MO1043 and T-Rex-293 cells were grown in DMEM supplemented with 10% FCS, 2 mM L-glutamine, 1000 U/ml penicillin and 1 mg/ml streptomycin, U-87, C6 and PC3 were maintained in RPMI 1640 supplemented with 10-20% FCS, 2 mM L-glutamine, 1000 U/ml penicillin and 1 mg/ml streptomycin. All cells were maintained in a humidified atmosphere with 5% CO2 at 37° C.
(§2) PBMCs (4×10^5 or 8×10^5 cells/sample) were incubated in 200 μl serum-free medium with the examined peptide for 90 min at room temperature and centrifuged (500×g, 5 min) Cell death was analyzed by PI staining and flow cytometer (Beckton-Dickinson) and BD Cell Quest Pro software. Apoptotic cell death was also analyzed by PI and annexin V-FITC staining (Zaid H et al. 2005. 12:751-760), and by acridine orange and ethidium bromide staining and confocal microscopy (Olympus 1×81).
(§3) To optimize the VDAC1 N-terminal derived peptides with respect to stability, length and specific targeting to cancer cells, several versions of these peptides were designed and tested for their efficacy in inducing the death of CLL-derived lymphocytes and MEC-1 cells (Table 3). Cells were incubated for 90 min with increasing concentrations of the indicated peptide and death was analyzed by PI stating and FACS as described hereinabove. As is clearly shown in FIG. 1 (and Table 3), deleting 6 residues from the C-terminus of the peptide, including the GXXXG motif, yielded a non-active peptide (peptide Δ(21-26) N-Ter-Antp, SEQ ID NO:22).

[2] = test system: MO1043 cells; assay: Cell death of MO1043 cells, PI staining and FACS; assay type: cell-based, human; conditions: compared with N-Ter-Antp
Description: as §1, §2
as §3, with “As is clearly shown in FIG. 1 (and Table 3), deleting 6 residues from the C-terminus of the peptide, including the GXXXG motif, yielded a non-active peptide (peptide Δ(21-26) N-Ter-Antp, SEQ ID NO:22).” left out

[3] = test system: CLL-derived lymphocytes; assay: Cell death of CLL-derived lymphocytes (PBMCs of CLL patients), PI staining and FACS; assay type: cell-based, human; conditions: 90 min incubation, PI staining, FACS, read-out: IC50, induction of cell death, CLL
Description: PBMCs were isolated from venous blood of the CLL patients by Ficoll-Paque PLUS (GE Healthcare, Israel) density gradient centrifugation, as follows. Venous blood (10-20 ml) was drawn from CLL patients with satisfying diagnostic criteria for CLL or from normal adult donors. Blood was collected into heparin tubes and was diluted 1:1 with balance solution composed of two stock solutions, A (1% D-glucose, 50 mM CaCl2, 0.98 mM MgCl2, 5.4 mM KCl and 0.145 M Tris-HCl, pH 7.6) and B (0.14 M NaCl) in a 1:9 ratio. The resulting mix was carefully layered on Ficoll-Paque Plus (10 ml of diluted blood:15 ml Ficoll) in 50 ml conical tubes. The tubes were centrifuged at 400×g (with minimal acceleration and deceleration) and 18-20° C. for 40 min. […] Cells were counted by a Countess Automated Cell Counter (Invitrogen).
as §2, with “1×81). […]” for “1×81).”

| Sequence | cell-death induction activity, in words [1] | also measured |
| --- | --- | --- |
| PTYADLGKSARDVFTKGYGFGLRQIKIWFQNRRMKWKK [Δ(1-4) N-Ter-Antp] | did not significantly modified the cell-death induction activity |  |
| GKSARDVFTKGYGFGLRQIKIWFQNRRMKWKK [Δ(1-10) N-Ter-Antp, GKSARDVFTKGYGFGL RQIKIWFQNRRMKWKK] | did not significantly modified the cell-death induction activity |  |
| RDVFTKGYGFGLRQIKIWFQNRRMKWKK [Δ(1-14) N-Ter-Antp, RDVFTKGYGFGL RQIKIWFQNRRMKWKK] | more active |  |
| MAVPPTYADLGKSARDVFTKRQIKIWFQNRRMKWKK [Δ(21-26) N-Ter-Antp] | non-active |  |
| TKGYGFGL RQIKIWFQNRRMKWKK (TKGYGFGLRQIKIWFQNRRMKWKK) [Δ(1-18) N-Ter-Antp] |  | cell-death induction activity, in words [2]: more active |
| MAVPPTYADLGKSARDVFTKGYGFGLRQIKIWFQNRRMKWKK [N-Ter-Antp, reference compound] |  | IC50 ([1]; 90 min incubation, serum-free medium, PI staining, FACS, read-out: IC50, induction of cell death, MEC-1): 4.2 ± 0.2 µM; IC50 [3]: 3.2 ± 0.5 µM |

From patent US9758559B2, “Short peptides derived from VDAC1, compositions and methods of use thereof” (B.G. NEGEV TECHNOLOGIES AND APPLICATIONS LTD., AT …, priority 2013, dated 2017)
